Eleven molecules from patent US20140073631A1 (priority 2012, published 2014) can be followed below.

Broadly, the % inhibition is how much of the control response was suppressed.

Common to all, as to assay: microbe, parasite or virus in culture
Experiment [1] relates to ATCC 35821 Para-aminosalicylic Resistant. In kind it is cell-based, Mycobacterium tuberculosis. The conditions noted are these: for MIC: Mycobacterium tuberculosis, ATCC35821, read-out: MIC Value, ATCC 35821 Para-aminosalicylic Resistant.
For experiment [2], the system named is ATCC 35837 Ethambutol Resistant. It is filed as cell-based. The conditions noted are these: Mycobacterium tuberculosis, ATCC35837, read-out: MIC Value, ATCC 35837 Ethambutol Resistant.
For experiment [3], the system named is ATCC 35830 Ethionamide Resistant. In kind it is cell-based. The following applies: Mycobacterium tuberculosis, ATCC35830, read-out: MIC Value, ATCC 35830 Ethionamide Resistant.
Experiment [4] concerns ATCC 35827 Kanamycin Resistant. In kind it is cell-based. The following applies: Mycobacterium tuberculosis, ATCC35827, read-out: MIC Value, ATCC 35827 Kanamycin Resistant.
In experiment [5] the test system is ATCC 35822 Isoniazid Resistant. In kind it is cell-based. The conditions noted are these: Mycobacterium tuberculosis, ATCC35822, read-out: MIC Value, ATCC 35822 Isoniazid Resistant.
For experiment [6], the system named is ATCC 35820 Streptomycin Resistant. It is filed as cell-based. The following applies: Mycobacterium tuberculosis, ATCC35820, read-out: MIC Value, ATCC 35820 Streptomycin Resistant.
In experiment [7] the test system is isoniazid (INH)-resistant Mtb (SRI 1369). In kind it is cell-based, Mycobacterium tuberculosis. The conditions noted are these: for MIC: Mycobacterium tuberculosis, read-out: MIC INH-R.
Experiment [8] concerns ofloxacin (OFX)-resistant Mtb (SRI 4000). In kind it is cell-based, Mycobacterium tuberculosis. The following applies: for MIC: Mycobacterium tuberculosis, read-out: MIC OFX-R.
In experiment [9] the test system is rifampin (RMP)-resistant Mtb (SRI 1367). It is filed as cell-based, Mycobacterium tuberculosis. The following applies: for MIC: Mycobacterium tuberculosis, read-out: MIC RMP-R.

Converted amounts (≈) assume the structure as drawn.

In the case of `Nc1ccc(C(=O)O)c(O)c1` [Para-aminosalicylic, reference compound], the “MIC Value, ATCC 35821 Para-aminosalicylic Resistant” value in [1] is over 8 µg/mL.

Turning to `CC1COc2c(N3CCN(C(=N)NC#N)CC3)c(F)cc3c(=O)c(C(=O)O)cn1c23` (stereo not drawn) [BVS-60C (XVII)], the MIC in experiment [2] was 0.625 µg/mL (≈ 1.51 µM); in experiment [3], 0.312 µg/mL (≈ 0.753 µM); in experiment [4] it was 0.625 µg/mL (≈ 1.51 µM); in [5], 0.625 µg/mL (≈ 1.51 µM); in experiment [1] it was 0.625 to 1.25 µg/mL (≈ 1.51 to 3.02 µM); in [6] it was 0.312 µg/mL (≈ 0.753 µM).

As to `C[C@@H]1COc2c(N3CCN(C(=N)NC(=N)N4CCN(c5c(F)cc6c(=O)c(C(=O)O)cn7c6c5OC[C@@H]7C)CC4)CC3)c(F)cc3c(=O)c(C(=O)O)cn1c23` [BVS-76D (XVII)], the MIC in [2] is 0.312 to 0.625 µg/mL (≈ 0.41 to 0.82 µM); in [3], 0.156 µg/mL (≈ 0.205 µM); in experiment [4] it was 0.625 µg/mL (≈ 0.82 µM); in experiment [5], 0.625 µg/mL (≈ 0.82 µM); in [1], 0.625 to 1.25 µg/mL (≈ 0.82 to 1.64 µM); in experiment [6], 0.312 µg/mL (≈ 0.41 µM).

Take `CO[C@H]1/C=C/O[C@@]2(C)Oc3c(C)c(O)c4c(O)c(c(/C=N/N5CCN(C)CC5)c(O)c4c3C2=O)NC(=O)/C(C)=C\C=C\[C@H](C)[C@H](O)[C@@H](C)[C@@H](O)[C@@H](C)[C@H](OC(C)=O)[C@@H]1C` [Rifampin, rifampin, reference compound]: in experiment [7], the “% inhibition at the MIC concentration” value amounted to 67% and the MIC is 0.049 µg/mL (≈ 0.0595 µM). Besides, in [8], the “% inhibition at the MIC concentration” value is 75% and the MIC is 0.195 µg/mL (≈ 0.237 µM).

As to `NNC(=O)c1ccncc1` [Isoniazid, isoniazid, reference compound], the “% inhibition at the MIC concentration” value in [9] came to 86%. The MIC in experiment [9] is 0.02 µg/mL (≈ 0.146 µM); in experiment [5], over 8 µg/mL.

In the case of `CCc1cc(C(N)=S)ccn1` [Ethionamide, reference compound], in [3], the MIC is over 8 µg/mL.

For the molecule `NC[C@H]1O[C@H](O[C@H]2[C@H](O)[C@@H](O[C@H]3O[C@H](CO)[C@@H](O)[C@H](N)[C@H]3O)[C@H](N)C[C@@H]2N)[C@H](O)[C@@H](O)[C@@H]1O` [Kanamycin, reference compound], in [4], the MIC was over 8 µg/mL.

With `[H]/N=C(/N)N[C@H]1[C@H](O)[C@@H](O)[C@H](O[C@@H]2O[C@@H](C)[C@](O)(C=O)[C@H]2O[C@@H]2O[C@@H](CO)[C@H](O)[C@@H](O)[C@@H]2NC)[C@@H](N/C(N)=N\[H])[C@@H]1O` [Streptomycin, reference compound], the MIC in [6] was over 8 µg/mL.

Turning to `C[C@@H]1COc2c(N3CCN(C(=N)NC(=N)NCCCCCCNC(=N)NC(=N)N4CCN(c5c(F)cc6c(=O)c(C(=O)O)cn7c6c5OC[C@@H]7C)CC4)CC3)c(F)cc3c(=O)c(C(=O)O)cn1c23` [BVS-85A (XVII)], the MIC in [2] was 1.25 µg/mL (≈ 1.32 µM); in [3], 0.625 µg/mL (≈ 0.661 µM); in [4], 1.25 to 2.5 µg/mL (≈ 1.32 to 2.65 µM); in experiment [5], 1.25 µg/mL (≈ 1.32 µM); in experiment [1], 2.5 µg/mL (≈ 2.65 µM); in [6] it was 0.625 µg/mL (≈ 0.661 µM).

For the molecule `N=C(NCCCCCCNC(=N)NC(=N)N1CCN(c2cc3c(cc2F)c(=O)c(C(=O)O)cn3C2CC2)CC1)NC(=N)N1CCN(c2cc3c(cc2F)c(=O)c(C(=O)O)cn3C2CC2)CC1` [BVS-10A], the “% inhibition at the MIC concentration” value is listed as 53% in experiment [7], 58% in experiment [9] and 74% in [8]. Further, the MIC amounted to 1.56 µg/mL (≈ 1.71 µM) in experiment [7], 6.25 µg/mL (≈ 6.85 µM) in experiment [9] and 0.781 µg/mL (≈ 0.855 µM) in experiment [8].

Consider `CC[C@@H](CO)NCCN[C@@H](CC)CO` [Ethambutol, reference compound], for which, in [2], the MIC is over 8 µg/mL.
